The target in the assay is Human immunodeficiency virus type 1 protease (Human immunodeficiency virus 1, UniProt Q72874). Briefly: Inhibitory constant against HIV-1 protease.

Among the data in ChEMBL document CHEMBL1126530, “A concise enantioselective synthesis of rans-olefin dipeptide isosteres” (Bioorg Med Chem Lett, 1993) are Ki values, retold here.

With `COC(=O)[C@@H](NC(=O)[C@@H](/C=C/[C@H](C)C(=O)N[C@H](C(=O)OC)C(C)C)C(C)C)C(C)C`, the inhibitory constant (Ki) is more than 67 µM.

Consider `COC(=O)[C@@H](NC(=O)[C@@H](C)/C=C/[C@@H](Cc1ccccc1)C(=O)N[C@H](C(=O)OC)C(C)C)C(C)C`, for which the Ki was more than 67 µM.

As to `COC(=O)[C@@H](NC(=O)[C@@H](/C=C/[C@@H](C(=O)N[C@H](C(=O)OC)C(C)C)C(C)C)Cc1ccccc1)C(C)C`, the Ki was 5 µM.
